Patent US20070265456A1, “Novel crystal forms of atorvastatin hemi-calcium and processes for their preparation as well as novel processes for preparing other forms” (priority 2006, published 2007)

Assay: Stability testing against formation of the impurities atorvastatin-epoxy-dihydroxy (AED) and epoxydiketone on storage
Type: physicochemical
Parameters: key to ATV-epoxy-diketone: impurity content in % (w/w)
Method: As used herein, the term “stable” in reference to atorvastatin hemi-calcium Form VIII relates to the formation of […] 0.01% (w/w) of the impurity AED. The stability of Form VIII is measured by maintaining Form VIII at a temperature of about 40° C. at a relative humidity of about 75% for at least about 1 month, or at a temperature of about 25° C. at a relative humidity of about 60% for at least about 6 months. Stable atorvastatin hemi-calcium Form VIII is a Form VIII in which no more than about 0.01% (w/w) of the AED impurity is formed when maintained under the conditions specified above.
The atorvastatin hemi-calcium crystalline produced above was dried by two steps: In a vacuum dryer at about 40° C. by 3 cycles and after the LOD<5% was reached the drying was continued in a fluid bed dryer at about 50° C. The dry material was milled and micronized.
The dried, milled, atorvastatin hemi-calcium crystalline was tested for stability against the formation of two potential impurities: atorvastatin-epoxy-dihydroxy (AED) and epoxydiketone.

[1] = 0 (5 m at storage) (Test Sample B)
[2] = 1 m/25° C./60% RH (Test Sample E)
[3] = 1 m/40° C./75% RH (Test Sample I)
[4] = 2 m/25° C./60% RH (Test Sample F)
[5] = 2 m/40° C./75% RH (Test Sample J)
[6] = 3 m/25° C./60% RH (Test Sample G)
[7] = 3 m/40° C./75% RH (Test Sample K)
[8] = 6 m/25° C./60% RH (Test Sample H)
[9] = 6 m/40° C./75% RH (Test Sample L)

## CC(C)c1c(C(=O)Nc2ccccc2)c(-c2ccccc2)c(-c2ccc(F)cc2)n1CC[C@@H](O)C[C@@H](O)CC(=O)O (relative stereo) [atorvastatin hemi-calcium crystalline, atorvastatin hemi-calcium]
[1]
  ATV-epoxy-dihydroxy (AED): < 0.01 % (w/w)
  ATV-epoxy-diketone: <0.01
[2]
  ATV-epoxy-dihydroxy (AED): < 0.01 % (w/w)
  ATV-epoxy-diketone: <0.01
[3]
  ATV-epoxy-dihydroxy (AED): < 0.01 % (w/w)
  ATV-epoxy-diketone: <0.05
[4]
  ATV-epoxy-dihydroxy (AED): < 0.01 % (w/w)
  ATV-epoxy-diketone: <0.05
[5]
  ATV-epoxy-dihydroxy (AED): < 0.05 % (w/w)
  ATV-epoxy-diketone: <0.05
3 m/2-8° C. (Test Sample C)
  ATV-epoxy-dihydroxy (AED): < 0.01 % (w/w)
  ATV-epoxy-diketone: <0.05
[6]
  ATV-epoxy-dihydroxy (AED): < 0.01 % (w/w)
  ATV-epoxy-diketone: <0.05
[7]
  ATV-epoxy-dihydroxy (AED): < 0.05 % (w/w)
  ATV-epoxy-diketone: 0.05
6 m/2-8° C. (Test Sample D)
  ATV-epoxy-dihydroxy (AED): < 0.05 % (w/w)
  ATV-epoxy-diketone: <0.05
[8]
  ATV-epoxy-dihydroxy (AED): < 0.01 % (w/w)
  ATV-epoxy-diketone: <0.05
[9]
  ATV-epoxy-dihydroxy (AED): < 0.05 % (w/w)
  ATV-epoxy-diketone: 0.05
Release (Test Sample A)
  ATV-epoxy-dihydroxy (AED): < 0.01 % (w/w)
  ATV-epoxy-diketone: <0.01
